Measured values: patent US11077100B2, “Tetrahydroquinoline derivatives as P2X7 receptor antagonists” (RaQualia Pharma Inc., priority 2017, dated 2021)

Experiments:
[1] = molecular target: rat P2X7 (Rattus norvegicus (Rat), UniProt Q64663); assay: Rat P2X7 functional assay (Ca2+ influx, Fluo-4, FDSS); type: cell-based; settings: HEK293 cells stably expressing rat P2X7; BzATP final 10 microM; 7-point dose-response; read-out: Antagonistic activities with respect to the rat P2X7 receptor (IC50)
Protocol: Rat P2X7 Functional Assay
The functional activity of compounds was determined by measuring changes in intracellular calcium concentration using a Ca^2+-sensitive fluorescent dye, Fluo-4 (Molecular Probes). The changes in fluorescent signal were monitored by the cell imaging technology by Hamamatsu Photonics's Functional Drug Screening System (FDSS). Increases in intracellular Ca^2+ concentration were readily detected upon activation with BzATP.
HEK293 cells stably expressing rat P2X7 (GenBank accession number NM_019256) were grown in Corning CellBIND cell culture flasks, in a 5% CO2 humidified incubator to about 80% confluence. Media composition consisted of Dulbecco's Modified Eagle Medium (high glucose), 10% fetal bovine serum ([…]), 100 units/[…] Penicillin, 100 microg/mL Streptomycin and 250 microg/mL Geneticine.
1. […] Plate-out HEK293-rat P2X7 cells (40 microL medium containing 5,000 cells per well) into poly-D-lysine coated 384-well plates (BD Falcon) at 24 h prior to assay.
2. Incubate at 37° C. in 5% CO2.
3. Incubate the plate at 37° C. in 5% CO2 for 1 h.
5. Test compounds were prepared at 100× the test concentration in DMSO by serial dilution with Biomek-FX liquid handling instrument. 33× diluted compound solutions in assay buffer were prepared in intermediate compound plate with Biomek-NX liquid handling instrument. A further 3× dilution occurred in below steps 6 and 7.
6. Add 20 microL of 33× diluted compound solutions into each well and leave the plate for 10 min under the dark at room temperature.
7. Measure activity by FDSS as follows: • Set the assay plate on the stacker of FDSS. • Start the detection of fluorescence intensity at 540 nm by 480 nm exicitation. • After 30 seconds, add 20 microL of assay buffer containing 30 microM BzATP (final 10 microM).
IC50 values for compounds of the present invention were determined from 7-point dose-response studies. Curves were generated using the average of duplicate wells for each data point. Finally, the IC50 values are calculated with the best-fit dose curve determined by XLfit (ID Business Solutions Ltd.).

[2] = molecular target: human P2X7 (Homo sapiens (Human), UniProt Q99572); assay: Human P2X7 functional assay (Ca2+ influx, Fluo-4, FDSS); type: cell-based; settings: antagonistic activity with respect to the human P2X7 receptor; BzATP final concentration 80 microM
Procedure, shortened: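 Ca2+ influx was triggered with BzATP (80 μM final) after a 10-min room-temperature compound preincubation and monitored with Fluo-4 (ex 480/em 540 nm) on FDSS. The cells were HEK293 stably carrying FLAG-tagged human P2X7. Duplicate-averaged 7-point dose-responses gave IC50s.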

human P2X7, sequence (Q99572 whole entry): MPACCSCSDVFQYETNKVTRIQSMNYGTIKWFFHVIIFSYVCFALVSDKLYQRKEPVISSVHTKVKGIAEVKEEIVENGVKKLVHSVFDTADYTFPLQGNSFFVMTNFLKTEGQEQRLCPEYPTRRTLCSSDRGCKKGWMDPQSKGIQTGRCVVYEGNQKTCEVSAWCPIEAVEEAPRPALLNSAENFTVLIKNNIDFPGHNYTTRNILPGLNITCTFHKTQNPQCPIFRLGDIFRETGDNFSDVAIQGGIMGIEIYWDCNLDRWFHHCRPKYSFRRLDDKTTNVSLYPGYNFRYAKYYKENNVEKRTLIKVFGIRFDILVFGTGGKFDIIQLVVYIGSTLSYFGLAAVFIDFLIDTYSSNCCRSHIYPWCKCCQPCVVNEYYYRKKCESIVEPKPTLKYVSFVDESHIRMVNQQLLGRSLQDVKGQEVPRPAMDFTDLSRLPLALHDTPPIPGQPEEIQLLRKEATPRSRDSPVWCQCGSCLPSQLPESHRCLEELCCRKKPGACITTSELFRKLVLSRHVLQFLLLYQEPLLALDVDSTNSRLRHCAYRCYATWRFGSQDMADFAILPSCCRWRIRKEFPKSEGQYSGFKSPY
rat P2X7, sequence (Q64663 whole entry): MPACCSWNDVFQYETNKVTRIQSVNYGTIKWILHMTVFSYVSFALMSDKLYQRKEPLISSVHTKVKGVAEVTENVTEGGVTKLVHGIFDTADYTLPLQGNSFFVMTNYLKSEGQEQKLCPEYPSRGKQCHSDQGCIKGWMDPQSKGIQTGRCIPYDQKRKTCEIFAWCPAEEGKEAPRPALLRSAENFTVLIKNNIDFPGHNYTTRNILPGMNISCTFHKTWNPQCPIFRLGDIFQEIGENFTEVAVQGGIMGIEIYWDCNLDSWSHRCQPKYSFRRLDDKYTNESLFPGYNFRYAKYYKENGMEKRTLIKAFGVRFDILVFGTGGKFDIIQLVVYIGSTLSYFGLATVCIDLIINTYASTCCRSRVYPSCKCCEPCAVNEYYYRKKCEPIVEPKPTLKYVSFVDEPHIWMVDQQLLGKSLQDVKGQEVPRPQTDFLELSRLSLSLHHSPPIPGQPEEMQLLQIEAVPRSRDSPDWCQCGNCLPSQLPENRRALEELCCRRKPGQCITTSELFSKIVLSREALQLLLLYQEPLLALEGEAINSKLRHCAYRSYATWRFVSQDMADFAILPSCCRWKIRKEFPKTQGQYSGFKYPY

| Structure (SMILES) | IC50 [1] [nM] | IC50 [2] [nM] |
| --- | --- | --- |
| CN1CCO[C@]2(CC[C@@](F)(C(=O)NCc3ccc(Cl)cc3Cl)c3cccnc32)C1 [Example 290, (2R,5′S)—N-(2,4-dichlorobenzyl)-5′-fluoro-4-methyl-6′,7′-dihydro-5′H-spiro[morpholine-2,8′-quinoline]-5′-carboxamide] | < 1000 | < 50 |
| O=C(NCc1ccc(F)cc1Cl)[C@]1(F)CC[C@H](O)c2ncc(F)cc21 [Example 242, (5S,8S)-N-(2-chloro-4-fluorobenzyl)-3,5-difluoro-8-hydroxy-5,6,7,8-tetrahydroquinoline-5-carboxamide] | < 1000 | < 50 |
| O=C(NCc1ccc(F)c(F)c1Cl)[C@@H]1CC[C@H](O)c2ncccc21 [Example 82, (5R,8S)-N-(2-chloro-3,4-difluorobenzyl)-8-hy-droxy-5,6,7,8-tetrahydro-quinoline-5-carboxamide] | < 1000 | < 50 |
| O=C(NCc1c(F)cc(Cl)cc1Cl)[C@]1(F)CC[C@@H](O)c2ncccc21 [Example 117, (5S,8R)-N-(2,4-dichloro-6-fluorobenzyl)-5-fluoro-8-hydroxy-5,6,7,8-tetrahydroquinoline-5-carboxamide] | < 1000 | < 50 |
| CSC[C@]1(O)CC[C@@](F)(C(=O)NCc2ccc(Cl)cc2Cl)c2cccnc21 [Example 287, (5S,8S)-N-(2,4-dichlorobenzyl)-5-fluoro-8-hydroxy-8 ((methylthio)methyl)-5,6,7,8-tetrahydroquinoline-5-carboxamide] | < 1000 | < 50 |
| O=C1CCC(C(=O)NCc2cccc(Cl)c2Cl)c2cccnc21 (stereo not drawn) [Example 3, N-(2,3-dichlorobenzyl)-8-oxo-5,6,7,8-tetrahydro-quinoline-5-carboxamide] | < 1000 | 301 to 1000 |
| O=C(NCc1ccc(Cl)cc1Cl)[C@]1(F)CC[C@H](O)c2ncc(F)cc21 [Example 241, (5S,8S)-N-(2,4-dichlorobenzyl)-3,5-difluoro-8-hydroxy-5,6,7,8-tetrahydroquinoline-5-carboxamide] | < 1000 | < 50 |
| O=C(NCc1c(F)cc(F)cc1F)[C@]1(F)CC[C@H](O)c2ncccc21 [Example 180, (5S,8S)-5-fluoro-8-hydroxy-N-(2,4,6-trifluorobenzyl)-5,6,7,8-tetrahydroquinoline-5-carboxamide] | < 1000 | < 50 |
| O=C(NC1CCOc2cc(Cl)cc(Cl)c21)[C@]1(F)CC[C@H](O)c2ncccc21 (stereo partly drawn) [Example 230, (5S,8S)-N-(5,7-dichlorochroman-4-yl)-5-fluoro-8-hydroxy-5,6,7,8-tetrahydroquinoline-5-carboxamide] | < 1000 | < 50 |
| O=C(NCc1ccc(Cl)cc1Cl)[C@]1(F)CC[C@](O)(CO)c2ncccc21 [Example 305, (5S,8R)-N-(2,4-dichlorobenzyl)-5-fluoro-8-hydroxy-8-(hydroxymethyl)-5,6,7,8-tetrahydroquinoline-5-carboxamide] | < 1000 | < 50 |
| C[C@@H](NC(=O)[C@]1(F)CC[C@@](O)(CO)c2ncccc21)c1ccc(Cl)cc1Cl [Example 326, (5S,8S)-N-((R)-1-(2,4-dichlorophenyl)ethyl)-5-fluoro-8-hydroxy-8-(hydroxymethyl)-5,6,7,8-tetrahydroquinoline-5-carboxamide] | < 1000 | < 50 |
| O=C(NCc1ccc(F)cc1Cl)[C@]1(F)CC[C@](O)(CO)c2ncccc21 [Example 307, (5S,8R)-N-(2-chloro-4-fluorobenzyl)-5-fluoro-8-hydroxy-8-(hydroxymethyl)-5,6,7,8-tetrahydroquinoline-5-carboxamide] | < 1000 | 301 to 1000 |
| O=C(NCc1cccc(Cl)c1Cl)C1(F)CCC(O)c2ncccc21 (stereo not drawn) [Example 21, N-(2,3-dichlorobenzyl)-5-fluoro-8-hydroxy-5,6,7,8-tetrahydroquinoline-5-carboxamide] | < 1000 | < 50 |
| O=C(NCc1ccc(F)c(F)c1Cl)[C@H]1CC[C@H](O)c2ncccc21 [Example 81, (5S,8S)-N-(2-chloro-3,4-difluorobenzyl)-8-hy-droxy-5,6,7,8-tetrahydro-auinoline-5-carboxamide] | < 1000 | < 50 |
| C[C@@H](NC(=O)[C@]1(F)CC[C@@](O)(CO)c2ncccc21)c1ccc(F)cc1Cl [Example 327, (5S,8S)-N-((R)-1-(2-chloro-4-fluorophenyl)ethyl)-5-fluoro-8-hydroxy-8-(hydroxymethyl)-5,6,7,8-tetrahydroquinoline-5-carboxamide] | < 1000 | < 50 |
| Cc1cc(Cl)cc(Cl)c1CNC(=O)C1(O)CCC(O)c2ncccc21 (stereo not drawn) [Example 24, N-(2,4-dichloro-6-methyl-benzyl)-5,8-dihydroxy-5,6,7,8-tetrahydroquinoline-5-carboxamide] | < 1000 | < 50 |
| O=C(NCc1cccc(Cl)c1Cl)[C@]1(F)CC[C@@H](O)c2ncccc21 (stereo in doubt) [Example 121, (5S,8RS)-N-(2,3-dichlorobenzyl)-5-fluoro-8-hydroxy-5,6,7,8-tetrahydroquinoline-5-carboxamide] | < 1000 | 50 to 100 |
| COCc1cc(Cl)cc(Cl)c1CNC(=O)C1(F)CCC(O)c2ncccc21 (stereo not drawn) [Example 23, N-(2,4-dichloro-6-(methoxy-methyl)benzyl)-5-fluoro-8 hydroxy-5,6,7,8-tetrahydro-quinoline-5-carboxamide] | < 1000 | < 50 |
| O=C(NCc1ccc(F)cc1Cl)[C@@H]1CC[C@H](O)c2ncccc21 [Example 68, (5R,8S)-N-(2-chloro-4-fluorobenzyl)-8-hydroxy-5,6,7,8-tetrahydroquinoline-5-carboxamide] | < 1000 | < 50 |
| O=C(NCc1ccc(Cl)cc1Cl)[C@@H]1CC[C@H](O)c2ncccc21 [Example 66, (5R,8S)-N-(2,4-dichloro-benzyl)-8-hydroxy-5,6,7,8-tetrahydroquinoline-5-carboxamide] | < 1000 | < 50 |
| C[C@]1(O)CC[C@@](F)(C(=O)NCc2ccc(F)c(Cl)c2F)c2cccnc21 [Example 268, (5S,8S)-N-(3-chloro-2,4-difluorobenzyl)-5-fluoro-8-hydroxy-8-methyl-5,6,7,8-tetrahydroquinoline-5-carboxamide] | < 1000 | < 50 |
| O=C(NCc1cccc(F)c1Cl)[C@]1(F)CC[C@H](O)c2ncccc21 [Example 169, (5S,8S)-N-(2-chloro-3-fluorobenzyl)-5-fluoro-8-hydroxy-5,6,7,8-tetrahydroquinoline-5-carboxamide] | < 1000 | < 50 |
| Cc1cc(Cl)cc(Cl)c1CNC(=O)[C@@H]1C[C@@H](O)c2ncccc21 [Example 97, (5R,7R)-N-(2,4-dichloro-6-methylbenzyl)-7-hy-droxy-6,7-dihydro-5H-cyclopenta[b]pyridin-5-carboxamide] | < 1000 | < 50 |
| O=C(NCc1ccc(Cl)cc1C(F)(F)F)[C@]1(F)CC[C@H](O)c2ncccc21 [Example 157, (5S,8S)-N-(4-chloro-2-(trifiuoromethyl)benzyl)-5-fluoro-8-hydroxy-5,8,7,8-tetrahydroquinoline-5-carboxamide] | < 1000 | < 50 |
| O=C(NCc1ccc(Cl)cc1Cl)C1(F)CC(O)c2ncccc21 (stereo not drawn) [Example 29, N-(2,4-dichlorobenzyl)-5-fluoro-7-hydroxy-6,7-dihydro-5H-cyclopenta[b]pyridine-5-carboxamide] | < 1000 | < 50 |
| O=C1COC[C@@]2(CC[C@@](F)(C(=O)NCc3ccc(Cl)cc3Cl)c3cccnc32)N1 (relative stereo) [Example 62, (3S*,5′S*)-N-(2,4-dichlorobenzyl)-5′-fluoro-5-oxo-6′,7′-dihydro-5′H-spiro[morpholine-3,8′-quinoline]-5′-carboxamide] | < 1000 | 101 to 300 |
| O=C(NCc1ccc(Cl)cc1F)[C@@H]1CC[C@H](O)c2ncccc21 [Example 78, (5R,8S)-N-(4-chloro-2-fluorobenzyl)-8-hydroxy-5,6,7,8-tetrahydroquinoline-5-carboxamide] | < 1000 | < 50 |
